Test results from publication PMC3344887 (PLoS ONE, 2012).
Read-outs that look alike come from different tables or passages of the source.

Assays:
DAT [1] = target: T1, DAT (Homo sapiens, UniProt Q01959); test: cell-based
HEK 293 cells = test: Toxilight toxicity assay, cell integrity; format: cell-based, human
healthy subjects [2] = test: Soft-link PK-PD model, MDMA plasma concentration vs VAS any drug effect; format: in vivo, humans; settings: for EC50: Homo sapiens
Description: PK-PD modeling: First, a soft-link PK-PD model was used to evaluate the in vivo relationship between the concentration of MDMA and subjective effect of the drug. The change in the VAS for any drug effect was used as the pharmacodynamic measure in each individual. Because we observed clockwise hysteresis in the effect-concentration relationship over time, we used PK-PD data pairs within the ascending part of the individual curves up to Emax or Cmax. Our estimate of Emax, which should represent the maximal response portion of the dose-response curve, may already have been affected by tolerance. […] Based on the good brain penetration of MDMA and absence of a time lag, we assumed rapid equilibration between plasma and the central compartment (brain). […] The sigmoid Emax model provided a better fit than a simple Emax or linear model. Data pooling was used because only few data pairs were available per subject. Non-linear regression was used to obtain parameter estimates. Second, we also used a hard-link PK-PD model to predict in vivo PD effects based on the in vitro concentration-response data linked to the observed individual in vivo PK. […] Similar to the soft-link PK-PD model, a single compartment PK model (plasma = brain concentration) was used, and only ascending PK or PD values were included. The in vivo data were linked to the PK of each individual, and a mean predicted effect-time curve was established.

healthy subjects [3] = test: Visual Analog Scales, subjective drug effects, clinical study; format: in vivo, humans
Protocol: (§1) The washout periods between the sessions were at least 10 days long.
(§2) Identical placebo (lactose) capsules were prepared. […] Drugs were administered without food.
(§3) The psychometric measures included Visual Analog Scales (VAS), [10], the Adjective Mood Rating Scale (AMRS), and 5-Dimensions of Altered States of Consciousness (5D-ASC), [23]. […] The VASs were presented as 100 mm horizontal lines marked “not at all" on the left and “extremely" on the right. The VASs for “closeness to others," “open," and “talkative" were bidirectional (±50 mm). The VASs were administered 4 h before and 0, 0.33, 1, 1.5, 2, 2.5, 3, 3.5, 4, and 5 h after MDMA or placebo administration. […] The AMRS contains subscales for activity, extroversion and introversion, well-being, emotional excitation, anxiety-depression, and dreaminess. The 5D-ASC rating scale measures alterations in mood, perception, experience of self in relation to the environment, and thought disorder. The 5D-ASC rating scale comprises five subscales or dimensions and 11 lower-order scales. The 5D-ASC dimension “oceanic boundlessness" (OB, 27 items) measures derealization and depersonalization associated with positive emotional states, ranging from heightened mood to euphoric exaltation. […] The global ASC score was determined by adding the OB, AED, and VR scores. The 5D-ASC scale was administered 4 h after MDMA or placebo administration.
Clinical data values were transformed to differences from baseline. Peak effects (Emax) were determined for repeated measures. Emax values were compared using General Linear Models repeated-measures analysis of variance, with drug as within-subject factor, using Statistica 6.0 software (StatSoft, Tulsa, OK). Tukey post hoc comparisons were performed based on significant main effects of treatment. Additional analyses of variance were performed, with period as factor to exclude period effects. Correlation analyses were performed using Pearson’s correlations. The criterion for significance was p<0.05. Mean arterial pressure (MAP) was calculated from diastolic blood pressure and systolic blood pressure using the following formula: MAP = DBP+(SBP - DBP)/3.

healthy subjects [4] = test: Adverse effects, List of Complaints, clinical study
Protocol: as §1, §2
Physiologic measures were assessed repeatedly 4, 3, 2, and 1 h before and 0, 0.33, 0.66, 1, 1.5, 2, 2.5, 3, 4, 5, and 6 h after MDMA or placebo administration. Heart rate, systolic blood pressure, and diastolic blood pressure were measured using an OMRON M7 blood pressure monitor (OMRON Healthcare Europe, Hoofddorp, The Netherlands). Measures were taken twice per time point with an interval of 1 min, and the average was used for the analysis. Core (tympanic) temperature was assessed using a GENIUS 2 ear thermometer (Tyco Healthcare Group, Watertown, NY). […] Adverse effects were assessed using the List of Complaints (LC), which consists of 66 items that yield a total adverse effects score and reliably measure physical and general discomfort.

healthy subjects [5] = test: 5-Dimensions of Altered States of Consciousness (5D-ASC), clinical study; format: in vivo, humans; settings: placebo-placebo vs placebo-MDMA
Protocol: as §1, §2, §3

DAT [6] = target: T1, DAT; test: Radioligand binding, [3H]-WIN35,428, HEK 293 membranes; design: expressed in transfected cells; host or cells: HEK 293 cells (Invitrogen), stably transfected
SERT = SERT (Homo sapiens, UniProt P31645); settings: % of plasma sample dilution, undiluted plasma = 100%; plasma 120 min after MDMA/placebo; mean±SEM
SERT, sequence (P31645 whole entry): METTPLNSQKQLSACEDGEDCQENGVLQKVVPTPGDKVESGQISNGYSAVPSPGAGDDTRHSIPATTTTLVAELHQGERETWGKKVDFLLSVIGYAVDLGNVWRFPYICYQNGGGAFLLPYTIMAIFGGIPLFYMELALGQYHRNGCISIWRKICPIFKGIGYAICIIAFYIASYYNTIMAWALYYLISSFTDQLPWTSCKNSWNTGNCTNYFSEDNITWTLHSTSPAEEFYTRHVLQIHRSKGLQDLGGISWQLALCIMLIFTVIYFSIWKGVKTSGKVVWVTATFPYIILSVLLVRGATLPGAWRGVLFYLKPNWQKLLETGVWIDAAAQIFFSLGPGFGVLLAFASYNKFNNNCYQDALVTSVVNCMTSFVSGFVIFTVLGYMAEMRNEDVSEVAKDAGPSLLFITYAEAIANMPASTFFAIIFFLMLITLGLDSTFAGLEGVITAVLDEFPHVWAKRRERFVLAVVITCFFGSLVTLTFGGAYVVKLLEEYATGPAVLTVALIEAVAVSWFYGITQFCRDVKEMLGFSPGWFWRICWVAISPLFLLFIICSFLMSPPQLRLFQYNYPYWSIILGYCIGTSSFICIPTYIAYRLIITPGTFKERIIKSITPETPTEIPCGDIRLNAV

clinical = settings: human, in vivo
Protocol: as §2
Plasma concentrations of copeptin were also determined in this study as reported elsewhere. […] No hydrolysis was performed. Thus, the values for HMMA represent the drug concentrations of the non-conjugated metabolite. All blood samples were collected on ice and centrifuged within 10 min at 4°C. The plasma was then stored at –20°C until the analysis.
Cmax and tmax were obtained directly from the observed concentration-time curves. […] Terminal elimination half-life (t 1/2) was calculated using λz and the equation t1/2 = ln2/λz. The area under the plasma concentration-time curve up to 6 h (AUC0-6h) was calculated using the linear trapezoidal rule. The AUC0–∞ was determined by extrapolation of AUC0–6h using λz. The PK parameters were determined using the PK functions for Excel (Microsoft, Redmont, CA, USA). Plasma concentrations were only determined up to 6 h after MDMA administration because the aim of the study was to assess potential changes in MDMA plasma levels while relevant pharmacodynamic effects or MDMA were present.

[7] = peak change from baseline, mean±SEM, 16 subjects

T1 sequence (Q01959 whole entry): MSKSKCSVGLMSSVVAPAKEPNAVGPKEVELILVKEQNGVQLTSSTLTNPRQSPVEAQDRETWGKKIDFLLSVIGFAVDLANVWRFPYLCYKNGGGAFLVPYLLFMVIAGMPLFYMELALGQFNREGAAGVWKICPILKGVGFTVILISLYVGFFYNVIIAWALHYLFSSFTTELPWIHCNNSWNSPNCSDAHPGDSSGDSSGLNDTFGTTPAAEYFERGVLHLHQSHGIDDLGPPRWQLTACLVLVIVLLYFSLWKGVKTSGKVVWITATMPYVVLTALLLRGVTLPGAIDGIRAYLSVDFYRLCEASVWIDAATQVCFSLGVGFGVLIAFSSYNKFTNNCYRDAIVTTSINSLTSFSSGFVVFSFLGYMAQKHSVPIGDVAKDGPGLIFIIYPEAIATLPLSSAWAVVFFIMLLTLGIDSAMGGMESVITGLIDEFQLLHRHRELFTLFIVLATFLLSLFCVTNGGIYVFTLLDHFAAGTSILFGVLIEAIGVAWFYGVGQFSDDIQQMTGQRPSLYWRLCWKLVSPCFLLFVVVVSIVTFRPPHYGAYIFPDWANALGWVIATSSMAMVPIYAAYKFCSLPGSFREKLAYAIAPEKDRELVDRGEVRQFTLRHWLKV

## CNC(C)Cc1ccc2c(c1)OCO2 (stereo not shown) [MDMA, 3,4-methylenedioxymethamphetamine]
DAT [1]
  Ki: 16.7 µM
HEK 293 cells
  Cell integrity after treatment: confirmed
Healthy subjects [2]; second statement, in brackets, read-out: EC50 of the PK-PD curve in humans
  EC50: 0.38 µM
Healthy subjects [2]; second statement, read-out: EC50 of the PK-PD curve in humans
  EC50: 0.074 µg/mL
Healthy subjects [2]; sigmoid Emax model, in brackets, read-out: EC50 of in vivo PK-PD relationship (MDMA plasma concentration)
  EC50: 0.48 µM
Healthy subjects [2]; sigmoid Emax model, pooled data, read-out: EC50 of in vivo PK-PD relationship (MDMA plasma concentration)
  EC50: 0.0925 ± 0.0076 µg/mL
Healthy subjects [2]; sigmoid Emax model, pooled data
  Emax of in vivo PK-PD relationship (any drug effect): 93.8±7.3%
Healthy subjects [3]; after drug administration
  Observed time to half-maximal subjective drug effect: 44 ± 4 min
Healthy subjects [3]; [7]
  VAS Any drug effect, Emax: 86.69±3.57
  VAS Closeness, Emax: 27.31±3.87
  VAS Drug high, Emax: 87.81±4.85
  VAS Drug liking, Emax: 90.69±4.82
  VAS Good drug effect, Emax: 89.38±4.67
  VAS Open, Emax: 32.16±4.29
  VAS Stimulated, Emax: 76.31±6.84
  VAS Talkative, Emax: 28.81±5.12
Healthy subjects [4]; at 3 h, change from baseline, mean±SEM, 16 subjects
  List of Complaints (total score), Acute adverse effects: 5.56±1.72
Healthy subjects [4]; at 24 h, change from baseline, mean±SEM, 16 subjects
  List of Complaints (total score), Sub-acute adverse effects: 3.88±1.09
Healthy subjects [4]; clinical study
  Adverse effects produced: sweating, difficulty concentrating, thirst, and lack of appetite
Healthy subjects [5]
  Effect on ASC sum score, OB, AED and VR dimensions: significantly increased
DAT [6]
  Ki: 6.52 ± 2.24 µM
SERT
  Ex vivo binding (IC50%) SERT: >25%
clinical
  Cmax: 254 ± 13.6 ng/mL
  Tmax: 2.66 ± 0.29 h
clinical; 125 mg
  Cmax: 221 ± 11.6 ng/mL
clinical; AUC0-6
  AUC(0-t): 1110 ± 57.2 ng·h/mL
clinical; AUC0-6, Placebo-MDMA session, mean±SEM, n=16
  AUC(0-t): 953 ± 45.9 ng·h/mL
clinical; AUC(0-∞)
  AUC(0-inf): 2910 ± 276 ng·h/mL
clinical; T1/2
  half-life: 7.14 ± 0.4 h
clinical; T1/2, Placebo-MDMA session, mean±SEM, n=16
  half-life: 8.17 ± 0.74 h
clinical; Placebo-MDMA session, mean±SEM, n=16
  Tmax: 2.34 ± 0.19 h
